Values joined by “and” are separate entries in the source; they are usually repeats but may differ in a detail not shown here. Equal values may be shown once. Read-outs that look alike come from different tables or passages of the source.
How the values were obtained:
[1] = system: coca-5HT3; assay: Whole-cell voltage-clamp in HEK293 cells, coca-5HT3; assay type: cell-based, human α7 nAChR LBD, mouse 5HT3 IPD
Procedure: Channel mutants and agonists were further characterized in whole-cell voltage-clamp experiments performed on HEK293 cells. At passage 44–48, cells were plated at low density (1 × 10^3 per cm^2) on poly-D-lysine-coated glass coverslips, then transfected in 10 cm^2 wells using the Fugene 6 transfection reagent (Roche) with DNA plasmids containing both an ion channel cDNA (pcDNA3.1, 2 µg per well) and cDNA for GFP (pCMV, 0.1 μg per well), followed by replacement of the medium after 3 h. Recordings were made 24–72 h after transfection.
Electrophysiological recordings were performed in whole-cell voltage-clamp mode, on an inverted fluorescence microscope (Olympus IX-51) using pClamp software and a […] amplifier (Molecular Devices). Electrophysiological data was filtered at 4 kHz, digitized at 10 kHz using a Digidata 1400 interface (Molecular Devices), recorded on a PC (Dell) and analysed using custom MATLAB software (MathWorks). Solutions were delivered from a gravity fed perfusion system through a capillary tube placed approximately […] from the recorded cell using an eight-way manifold pinch valve system (Nanion), which was controlled from the acquisition software. This allowed for up to seven concentrations of agonist to be tested. […]

[2] = target: T1, coca-GlyR (α7(L141G,G175K,Y217F)–GlyR) (Homo sapiens, UniProt P23415+P36544, G175K/L141G/Y217F); assay: Membrane potential assay, coca-GlyR in HEK293; assay type: cell-based
T1 construct: expressed in transfected cells; host or cells: HEK293 (ATCC CRL-1573), pcDNA3.1
T1 sequence (P36544+P23415 fused P36544:L141G/P36544:G175K/P36544:Y217F): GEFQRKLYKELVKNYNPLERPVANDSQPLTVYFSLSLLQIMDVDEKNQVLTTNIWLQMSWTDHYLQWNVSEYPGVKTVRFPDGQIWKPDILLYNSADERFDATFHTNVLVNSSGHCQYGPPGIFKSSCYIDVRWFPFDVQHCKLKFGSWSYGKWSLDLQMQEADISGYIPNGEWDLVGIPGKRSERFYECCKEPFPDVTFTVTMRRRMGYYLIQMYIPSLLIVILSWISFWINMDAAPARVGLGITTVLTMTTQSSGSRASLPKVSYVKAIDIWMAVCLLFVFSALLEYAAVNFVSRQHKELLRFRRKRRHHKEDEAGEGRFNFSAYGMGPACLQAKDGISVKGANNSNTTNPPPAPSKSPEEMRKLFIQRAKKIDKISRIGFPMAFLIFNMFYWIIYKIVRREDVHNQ

[3] = system: α7–5HT3 mutant chimeric channels; assay: cell-based; assay type: cell-based, human α7 nAChR LBD, mouse 5HT3 IPD; conditions: for EC50: sheet 1e
[4] = target: T2, unmodified α7–5HT3 (UniProt P23979+P36544, M226I/T225I); assay: Membrane potential assay, unmodified α7–5HT3; assay type: cell-based, human α7 nAChR LBD, mouse 5HT3 IPD
T2 construct: expressed in transfected cells; host or cells: HEK293 (ATCC CRL-1573), pcDNA3.1
T2 sequence (P36544+P23979 fused P36544:T225I/P36544:M226I): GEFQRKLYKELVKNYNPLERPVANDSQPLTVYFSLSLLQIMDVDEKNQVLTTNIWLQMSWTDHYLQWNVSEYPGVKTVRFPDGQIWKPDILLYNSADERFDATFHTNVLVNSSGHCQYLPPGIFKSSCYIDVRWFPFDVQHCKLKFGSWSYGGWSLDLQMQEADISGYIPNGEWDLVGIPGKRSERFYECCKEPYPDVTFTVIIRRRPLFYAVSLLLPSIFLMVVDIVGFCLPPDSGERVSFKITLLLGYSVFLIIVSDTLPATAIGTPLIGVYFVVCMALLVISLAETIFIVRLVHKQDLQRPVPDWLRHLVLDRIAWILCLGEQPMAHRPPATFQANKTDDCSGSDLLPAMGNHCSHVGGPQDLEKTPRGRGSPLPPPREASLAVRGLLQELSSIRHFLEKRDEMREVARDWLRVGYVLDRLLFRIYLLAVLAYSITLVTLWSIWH

[5] = target: T3, unmodified α7–GlyR (Homo sapiens, UniProt P23415+P36544); assay: Membrane potential assay, unmodified α7–GlyR; assay type: cell-based; conditions: sheet 1d
T3 construct: expressed in transfected cells; host or cells: HEK293 (ATCC CRL-1573), pcDNA3.1
T3 sequence (P36544+P23415 fused): as the sequence (P36544+P23415 fused P36544:L141G/P36544:G175K/P36544:Y217F) above, with G119L, K153G, F195Y counted along it

[6] = target: α7–GlyR mutant chimeric channels (Homo sapiens, UniProt P36544, P216M); assay: Membrane potential assay screen, mutant α7–GlyR chimeric channels; assay type: cell-based; conditions: EC50 at α7 GlyR P216M, sheet 1d
α7–GlyR mutant chimeric channels (Homo sapiens, UniProt P36544, P216M), sequence (P36544 23-230 P216M): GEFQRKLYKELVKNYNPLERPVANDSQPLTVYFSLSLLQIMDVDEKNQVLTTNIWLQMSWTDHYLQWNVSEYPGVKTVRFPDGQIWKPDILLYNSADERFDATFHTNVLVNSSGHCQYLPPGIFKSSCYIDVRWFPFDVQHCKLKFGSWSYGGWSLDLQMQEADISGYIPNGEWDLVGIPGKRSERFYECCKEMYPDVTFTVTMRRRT
α7–GlyR mutant chimeric channels (Homo sapiens, UniProt P36544, P216M), sequence (P23415 248-457 partner): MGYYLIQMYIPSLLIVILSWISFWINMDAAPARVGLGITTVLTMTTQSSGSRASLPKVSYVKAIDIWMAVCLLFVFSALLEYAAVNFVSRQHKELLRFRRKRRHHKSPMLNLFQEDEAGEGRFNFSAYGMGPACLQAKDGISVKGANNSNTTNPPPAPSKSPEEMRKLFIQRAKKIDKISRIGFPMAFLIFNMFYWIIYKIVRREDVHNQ

[7] = target: α7–GlyR mutant chimeric channels (Homo sapiens, UniProt P36544, L131M); assay: as above; assay type: cell-based; conditions: EC50 at α7 GlyR L131M, sheet 1d
α7–GlyR mutant chimeric channels (Homo sapiens, UniProt P36544, L131M), sequence (P36544 23-229 L131M): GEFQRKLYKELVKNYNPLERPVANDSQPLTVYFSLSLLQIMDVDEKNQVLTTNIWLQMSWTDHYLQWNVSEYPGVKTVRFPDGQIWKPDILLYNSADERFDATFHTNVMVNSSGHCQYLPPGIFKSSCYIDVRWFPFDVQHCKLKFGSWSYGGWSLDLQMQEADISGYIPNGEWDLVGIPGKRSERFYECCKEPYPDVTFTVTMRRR
α7–GlyR mutant chimeric channels (Homo sapiens, UniProt P36544, L131M), sequence (P23415 247-457 partner): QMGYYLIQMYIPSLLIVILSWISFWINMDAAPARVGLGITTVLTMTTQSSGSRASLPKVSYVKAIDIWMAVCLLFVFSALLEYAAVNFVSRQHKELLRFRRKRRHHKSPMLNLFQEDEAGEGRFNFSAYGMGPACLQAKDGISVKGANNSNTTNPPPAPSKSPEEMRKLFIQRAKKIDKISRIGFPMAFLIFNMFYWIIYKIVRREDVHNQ

[8] = target: α7–GlyR mutant chimeric channels (Homo sapiens, UniProt P36544, L131N); assay: as above; assay type: cell-based; conditions: EC50 at α7 GlyR L131N, sheet 1d
α7–GlyR mutant chimeric channels (Homo sapiens, UniProt P36544, L131N), sequence (P36544 23-230 L131N): as the sequence (P36544 23-230 P216M) above, with L109N, M194P counted along it
α7–GlyR mutant chimeric channels (Homo sapiens, UniProt P36544, L131N), sequence (P23415 247-457 partner): as the sequence (P23415 247-457 partner) above

[9] = target: α7–GlyR mutant chimeric channels (Homo sapiens, UniProt P36544, P216I); assay: as above; assay type: cell-based; conditions: EC50 at α7 GlyR P216I, sheet 1d
α7–GlyR mutant chimeric channels (Homo sapiens, UniProt P36544, P216I), sequence (P36544 23-230 P216I): as the sequence (P36544 23-230 P216M) above, with M194I counted along it
α7–GlyR mutant chimeric channels (Homo sapiens, UniProt P36544, P216I), sequence (P23415 248-457 partner): as the sequence (P23415 248-457 partner) above

[10] = target: α7–GlyR mutant chimeric channels (Homo sapiens, UniProt P36544, L131K); assay: as above; assay type: cell-based; conditions: EC50 at α7 GlyR L131K, sheet 1d
α7–GlyR mutant chimeric channels (Homo sapiens, UniProt P36544, L131K), sequence (P36544 23-229 L131K): as the sequence (P36544 23-229 L131M) above, with M109K counted along it
α7–GlyR mutant chimeric channels (Homo sapiens, UniProt P36544, L131K), sequence (P23415 248-457 partner): as the sequence (P23415 248-457 partner) above

[11] = target: α7–GlyR mutant chimeric channels (Homo sapiens, UniProt P36544, L131A); assay: as above; assay type: cell-based; conditions: EC50 at α7GlyR L131A, sheet 1d
α7–GlyR mutant chimeric channels (Homo sapiens, UniProt P36544, L131A), sequence (P36544 23-228 L131A): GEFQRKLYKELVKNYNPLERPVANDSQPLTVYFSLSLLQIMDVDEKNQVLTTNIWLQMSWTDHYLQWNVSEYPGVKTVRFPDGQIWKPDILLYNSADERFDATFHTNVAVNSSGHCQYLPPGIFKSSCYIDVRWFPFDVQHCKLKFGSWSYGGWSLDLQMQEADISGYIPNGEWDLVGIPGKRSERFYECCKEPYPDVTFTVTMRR
α7–GlyR mutant chimeric channels (Homo sapiens, UniProt P36544, L131A), sequence (P23415 248-457 partner): as the sequence (P23415 248-457 partner) above

[12] = target: α7–GlyR mutant chimeric channels (Homo sapiens, UniProt P36544, Q79S); assay: as above; assay type: cell-based; conditions: EC50 at α7-GlyR Q79S, sheet 1d
α7–GlyR mutant chimeric channels (Homo sapiens, UniProt P36544, Q79S), sequence (P36544 23-230 Q79S): as the sequence (P36544 23-230 P216M) above, with Q57S, M194P counted along it
α7–GlyR mutant chimeric channels (Homo sapiens, UniProt P36544, Q79S), sequence (P23415 248-457 partner): as the sequence (P23415 248-457 partner) above

[13] = target: α7–GlyR mutant chimeric channels (Homo sapiens, UniProt P36544, L131F); assay: as above; assay type: cell-based; conditions: EC50 at α7GlyR L131F, sheet 1d
α7–GlyR mutant chimeric channels (Homo sapiens, UniProt P36544, L131F), sequence (P36544 23-228 L131F): as the sequence (P36544 23-228 L131A) above, with A109F counted along it
α7–GlyR mutant chimeric channels (Homo sapiens, UniProt P36544, L131F), sequence (P23415 248-457 partner): as the sequence (P23415 248-457 partner) above

[14] = screen of chimeric α7–5HT3 and α7–GlyR single LBD mutants (Fig. 1d)

Structure (SMILES): COC(=O)[C@H]1[C@@H](OC(=O)c2ccccc2)C[C@@H]2CC[C@H]1N2C [cocaine]
- currents from coca-5HT3 [1]: robust cocaine-activated currents
- EC50 [2]: 1.2 ± 0.1 µM
- agonism at Leu141Gly or Leu141Ala mutant channels [3, 14]: marked induction of cocaine agonism
- agonist activity at Trp77Phe and Leu131Asn mutant channels [3, 14]: some cocaine agonist activity
- EC50 ([3]; AVG, read-out: EC50 at a75HT3 L141G G175K Y115F, AVG): 4.78 µM
- EC50 ([3]; AVG, read-out: EC50 at a75HT3 L141G G175K Y210F, AVG): 2.27 µM
- EC50 ([3]; AVG, read-out: EC50 at a75HT3 L141G G175K Y217F, AVG): 0.715 µM
- EC50 ([3]; AVG, read-out: EC50 at a75HT3 L141G G175K, AVG): 0.315 µM
- EC50 ([3]; AVG, read-out: EC50 at a75HT3 L141G, AVG): 2.35 µM
- EC50 ([3]; single determinations, read-out: EC50 at a75HT3 L141G): 2.35 µM
- EC50 ([3]; single determinations, read-out: EC50 at a75HT3 L141G G175K): 0.39 µM and 0.24 µM
- EC50 ([3]; single determinations, read-out: EC50 at a75HT3 L141G G175K Y217F): 0.8 µM and 0.63 µM
- EC50 at a75HT3 unmodified, AVG ([4]; sheet 1e, AVG): 30 µM
- EC50 at a75HT3 unmodified ([4]; sheet 1e, single determinations): 30 µM
- EC50 at α7-5HT3, Avg ([4]; sheet 1d, Avg): 30 µM
- EC50 at α7-5HT3 ([4]; sheet 1d, single determinations): 30 µM
- EC50 at α7-GlyR, Avg ([5]; Avg): 30 µM
- EC50 at α7-GlyR ([5]; single determinations): 30 µM
- EC50 ([6]; Avg): > 30 µM
- EC50 ([6]; single determinations): > 30 µM
- EC50 ([7]; Avg): > 30 µM
- EC50 ([7]; single determinations): > 30 µM
- EC50 ([8]; Avg): 21 µM
- EC50 ([8]; single determinations): 12 µM and > 30 µM
- EC50 ([9]; Avg): > 30 µM
- EC50 ([9]; single determinations): > 30 µM
- EC50 ([10]; Avg): > 30 µM
- EC50 ([10]; single determinations): > 30 µM
- EC50 ([11]; Avg): > 30 µM
- EC50 ([11]; single determinations): > 30 µM
- EC50 ([12]; Avg): > 30 µM
- EC50 ([12]; single determinations): > 30 µM
- EC50 ([13]; Avg): > 30 µM
- EC50 ([13]; single determinations): > 30 µM
